Patent EP0796090B1, “CROSS-LINKED MICROPARTICLES AND THEIR USE AS T[…]” (Elan Drug Delivery Limited, priority 1994, dated 1996)

Test system: HSN cell line
Test: In vitro cytotoxic activity, MTT assay
Type: cell-based, rat
Conditions: HSN cells; for Emax: Rattus norvegicus, read-out: maximum reduction in cell activity
Protocol: Cytotoxic activity of the drug-microcapsule conjugates of Examples 5 to 7 was measured in vitro. The HSN cell line was used. This is a chemically-induced rat colonic sarcoma, which produces liver tumours in an animal model with a vascular pattern similar to that seen in human colorectal liver metastases. Cell kill was measured indirectly using MTT. This is reduced in active mitochondria to formazan, a coloured metabolite. HSN cells were incubated in multi-well plates to which was added a control dose of drug or drug-microcapsule lysate. After a range of exposure times, MTT was added to the wells and the concentration of formazan measured as an indication of […]. The assay was calibrated for this cell line against a range of known cell numbers.

| Molecule | Emax [%] | steepest part of the dose response curve [µg/mL] | maximum reduction in cell activity |
| --- | --- | --- | --- |
| CN(Cc1cnc2nc(N)nc(N)c2n1)c1ccc(C(=O)N[C@@H](CCC(=O)O)C(=O)O)cc1 [methotrexate] | ~80 | – | – |
| COc1cccc2c1C(=O)c1c(O)c3c(c(O)c1C2=O)C[C@@](O)(C(=O)CO)C[C@@H]3O[C@H]1C[C@H](N)[C@H](O)[C@H](C)O1 [doxorubicin] | ~80 | ≤ 0.1 | – |
| 2-fluoro-5-deoxyuridine [Example 5-FUdR] | – | – | approximately 80% |
